Consider three molecules from ChEMBL document CHEMBL4406811, “Optimization and Mechanistic Characterization of Pyridopyrimidine Inhibitors of Bacterial Biotin Carboxylase” (J Med Chem, 2019).

For series [1], the target named is PDK1 (Homo sapiens, UniProt Q15118). Briefly: Inhibition of recombinant human full-length His-tagged PDK1 expressed in baculovirus expression system at 25 uM using FRET-labeled Ser/Thr 07 peptide as substrate measured after 1 hr by Z'-lyte assay relative to control. Particulars: probe FRET-labeled Ser/Thr 07 peptide.
The target in series [2] is PAK4 (Homo sapiens, UniProt O96013). As to the kind of experiment: Inhibition of recombinant human GST-tagged PAK4 catalytic domain (295 to 591 residues) expressed in baculovirus expression system at 25 uM using FRET-labeled Ser/Thr 20 peptide as substrate measured after 1 hr by Z'-lyte assay relative to control. Particulars: probe FRET-labeled Ser/Thr 20 peptide.
Series [3] deals with CHEK2 (Homo sapiens, UniProt O96017). Briefly: Inhibition of recombinant human full-length His-tagged CHEK2 expressed in baculovirus expression system at 25 uM using FRET-labeled Ser/Thr 07 peptide as substrate measured after 1 hr by Z'-lyte assay relative to control. Particulars: probe FRET-labeled Ser/Thr 07 peptide.
For series [4], the target named is T1, PRKCZ (Homo sapiens, UniProt Q05513).
T1 sequence (Q05513 whole entry): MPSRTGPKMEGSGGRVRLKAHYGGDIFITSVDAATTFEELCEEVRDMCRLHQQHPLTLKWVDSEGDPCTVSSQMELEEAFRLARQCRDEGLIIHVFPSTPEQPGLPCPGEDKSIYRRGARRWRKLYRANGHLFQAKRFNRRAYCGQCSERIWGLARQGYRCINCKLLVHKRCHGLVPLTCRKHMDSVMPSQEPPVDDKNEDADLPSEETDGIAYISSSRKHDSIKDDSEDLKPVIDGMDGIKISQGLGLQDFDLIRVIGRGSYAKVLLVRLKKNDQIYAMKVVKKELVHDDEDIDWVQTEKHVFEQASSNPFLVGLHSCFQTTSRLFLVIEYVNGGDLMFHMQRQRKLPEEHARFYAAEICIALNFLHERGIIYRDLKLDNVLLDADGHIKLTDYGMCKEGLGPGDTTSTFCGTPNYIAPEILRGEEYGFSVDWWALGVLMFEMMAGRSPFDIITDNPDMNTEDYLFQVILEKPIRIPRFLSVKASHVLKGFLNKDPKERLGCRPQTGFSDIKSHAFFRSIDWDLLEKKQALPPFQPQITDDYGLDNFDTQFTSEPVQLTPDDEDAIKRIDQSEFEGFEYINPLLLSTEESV
Briefly: Inhibition of recombinant human full-length untagged PRKCZ expressed in baculovirus expression system at 25 uM using FRET-labeled Ser/Thr 07 peptide as substrate measured after 1 hr by Z'-lyte assay relative to control. Particulars: probe FRET-labeled Ser/Thr 07 peptide.

Series [5] concerns the target FGFR1 (Homo sapiens, UniProt P11362). As to the kind of experiment: Inhibition of recombinant human His-tagged FGFR1 cytoplasmic domain (308 to 731 residues) expressed in baculovirus expression system at 25 uM using FRET-labeled tyr 04 peptide as substrate measured after 1 hr by Z'-lyte assay relative to control. Particulars: probe FRET-labeled tyr 04 peptide.
The target of series [6] is MAPKAPK2 (Homo sapiens, UniProt P49137). As to the kind of experiment: Inhibition of recombinant human full-length His-tagged MAPKAPK2 expressed in Escherichia coli at 25 uM using FRET-labeled Ser/Thr 04 peptide as substrate measured after 1 hr by Z'-lyte assay relative to control. Particulars: probe FRET-labeled Ser/Thr 04 peptide.
Series [7] concerns the target INSR (Homo sapiens, UniProt P06213). Briefly: Inhibition of recombinant human GST-tagged INSR cytoplasmic domain (1011 to 1382 residues) expressed in baculovirus expression system at 25 uM using FRET-labeled Tyr 01 peptide as substrate measured after 1 hr by Z'-lyte assay relative to control. Particulars: probe FRET-labeled Tyr 01 peptide.
Series [8] has as its target NTRK1 (Homo sapiens, UniProt P04629). Briefly: Inhibition of recombinant human His-tagged NTRK1 cytoplasmic domain (441 to 796 residues) expressed in baculovirus expression system at 25 uM using FRET-labeled tyr 07 peptide as substrate measured after 1 hr by Z'-lyte assay relative to control. Particulars: probe FRET-labeled tyr 07 peptide.
Series [9] has as its target ABL1 (Homo sapiens, UniProt P00519). As to the kind of experiment: Inhibition of full-length recombinant human His-tagged ABL1 cytoplasmic domain expressed in baculovirus expression system at 25 uM using FRET-labeled tyr 02 peptide as substrate measured after 1 hr by Z'-lyte assay relative to control. Particulars: probe FRET-labeled tyr 02 peptide.
Series [10] concerns the target MAP4K4 (Homo sapiens, UniProt O95819). As to the kind of experiment: Inhibition of recombinant human GST-tagged MAP4K4 catalytic domain (1 to 328 residues) expressed in baculovirus expression system at 25 uM using FRET-labeled Ser/Thr 07 peptide as substrate measured after 1 hr by Z'-lyte assay relative to control. Particulars: probe FRET-labeled Ser/Thr 07 peptide.

Series [11] deals with T2, CHEK1 (Homo sapiens, UniProt O14757).
T2 sequence (O14757 whole entry): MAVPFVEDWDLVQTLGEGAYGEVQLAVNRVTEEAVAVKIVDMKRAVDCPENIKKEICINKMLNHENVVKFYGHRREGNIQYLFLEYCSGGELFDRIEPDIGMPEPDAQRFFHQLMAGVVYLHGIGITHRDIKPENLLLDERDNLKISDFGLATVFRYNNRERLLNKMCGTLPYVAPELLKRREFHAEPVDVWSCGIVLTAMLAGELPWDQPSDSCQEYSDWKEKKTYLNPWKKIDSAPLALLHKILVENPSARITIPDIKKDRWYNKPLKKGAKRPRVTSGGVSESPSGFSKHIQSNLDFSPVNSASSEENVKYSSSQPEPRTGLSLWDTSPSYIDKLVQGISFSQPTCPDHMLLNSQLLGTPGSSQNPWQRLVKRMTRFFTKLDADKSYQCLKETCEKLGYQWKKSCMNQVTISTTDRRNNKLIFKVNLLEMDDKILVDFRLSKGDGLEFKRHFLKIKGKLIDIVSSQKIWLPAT
Briefly: Inhibition of recombinant human full-length His-tagged CHEK1 expressed in baculovirus expression system at 25 uM using FRET-labeled Ser/Thr 19 peptide as substrate measured after 1 hr by Z'-lyte assay relative to control. Particulars: probe FRET-labeled Ser/Thr 19 peptide.

The target in series [12] is AKT1 (Homo sapiens, UniProt P31749). Briefly: Inhibition of recombinant human full-length His-tagged AKT1 expressed in baculovirus expression system at 25 uM using FRET-labeled Ser/Thr 05 peptide as substrate measured after 1 hr by Z'-lyte assay relative to control. Particulars: probe FRET-labeled Ser/Thr 05 peptide.
Series [13] relates to Escherichia coli. As to the kind of experiment: Antibacterial activity against Escherichia coli DM4100 harboring deltatolC mutant measured after 18 to 20 hrs in presence of permeabilizing agent PMBN by broth microdilution method. It counts as functional. (In general: Broth dilution looks for growth in wells or tubes with falling amounts of substance.)
Series [14] deals with EGFR (Homo sapiens, UniProt P00533). As to the kind of experiment: Inhibition of recombinant human GST-tagged EGFR cytoplasmic domain (668 to 1210 residues) expressed in baculovirus expression system at 25 uM using FRET-labeled tyr 04 peptide as substrate measured after 1 hr by Z'-lyte assay relative to control. Particulars: probe FRET-labeled tyr 04 peptide.
Series [15] addresses CSNK1D (Homo sapiens, UniProt P48730). Briefly: Inhibition of recombinant human full-length GST-tagged CSNK1D expressed in baculovirus expression system at 25 uM using FRET-labeled Ser/Thr 11 peptide as substrate measured after 1 hr by Z'-lyte assay relative to control. Particulars: probe FRET-labeled Ser/Thr 11 peptide.

Chain of NTRK1 (P04629 whole entry, the tested form may be a part): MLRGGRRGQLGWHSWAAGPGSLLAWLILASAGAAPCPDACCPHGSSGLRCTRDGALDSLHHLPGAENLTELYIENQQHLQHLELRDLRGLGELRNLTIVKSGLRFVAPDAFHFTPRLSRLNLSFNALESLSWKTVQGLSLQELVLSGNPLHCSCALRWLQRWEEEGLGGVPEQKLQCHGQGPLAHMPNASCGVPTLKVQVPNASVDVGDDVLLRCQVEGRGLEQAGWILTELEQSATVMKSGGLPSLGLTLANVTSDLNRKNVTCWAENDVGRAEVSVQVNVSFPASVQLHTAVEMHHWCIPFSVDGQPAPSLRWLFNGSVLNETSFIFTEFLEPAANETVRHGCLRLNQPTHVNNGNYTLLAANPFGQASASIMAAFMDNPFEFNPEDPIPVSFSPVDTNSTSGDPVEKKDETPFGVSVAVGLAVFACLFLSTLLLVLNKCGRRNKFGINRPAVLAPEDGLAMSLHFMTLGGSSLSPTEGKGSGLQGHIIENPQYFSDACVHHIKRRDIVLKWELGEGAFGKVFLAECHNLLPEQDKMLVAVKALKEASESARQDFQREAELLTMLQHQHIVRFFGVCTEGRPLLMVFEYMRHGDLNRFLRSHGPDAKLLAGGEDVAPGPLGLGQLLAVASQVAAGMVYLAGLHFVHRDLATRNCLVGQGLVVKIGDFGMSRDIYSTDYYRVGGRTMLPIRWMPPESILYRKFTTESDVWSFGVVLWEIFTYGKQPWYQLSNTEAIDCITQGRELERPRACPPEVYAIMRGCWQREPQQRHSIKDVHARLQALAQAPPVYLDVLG
Chain of CSNK1D (P48730 whole entry): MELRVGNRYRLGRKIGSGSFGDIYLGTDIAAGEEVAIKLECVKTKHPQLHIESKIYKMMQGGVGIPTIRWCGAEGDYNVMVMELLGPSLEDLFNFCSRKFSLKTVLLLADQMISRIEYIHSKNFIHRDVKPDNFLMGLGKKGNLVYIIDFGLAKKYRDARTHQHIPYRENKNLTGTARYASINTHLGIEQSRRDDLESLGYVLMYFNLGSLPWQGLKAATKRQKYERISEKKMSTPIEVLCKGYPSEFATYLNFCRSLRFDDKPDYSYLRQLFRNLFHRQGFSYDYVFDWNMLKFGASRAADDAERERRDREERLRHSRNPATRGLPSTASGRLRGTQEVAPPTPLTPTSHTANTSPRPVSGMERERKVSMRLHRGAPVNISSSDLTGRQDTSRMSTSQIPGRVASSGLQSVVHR
Chain of MAP4K4 (O95819 whole entry, the tested form may be a part): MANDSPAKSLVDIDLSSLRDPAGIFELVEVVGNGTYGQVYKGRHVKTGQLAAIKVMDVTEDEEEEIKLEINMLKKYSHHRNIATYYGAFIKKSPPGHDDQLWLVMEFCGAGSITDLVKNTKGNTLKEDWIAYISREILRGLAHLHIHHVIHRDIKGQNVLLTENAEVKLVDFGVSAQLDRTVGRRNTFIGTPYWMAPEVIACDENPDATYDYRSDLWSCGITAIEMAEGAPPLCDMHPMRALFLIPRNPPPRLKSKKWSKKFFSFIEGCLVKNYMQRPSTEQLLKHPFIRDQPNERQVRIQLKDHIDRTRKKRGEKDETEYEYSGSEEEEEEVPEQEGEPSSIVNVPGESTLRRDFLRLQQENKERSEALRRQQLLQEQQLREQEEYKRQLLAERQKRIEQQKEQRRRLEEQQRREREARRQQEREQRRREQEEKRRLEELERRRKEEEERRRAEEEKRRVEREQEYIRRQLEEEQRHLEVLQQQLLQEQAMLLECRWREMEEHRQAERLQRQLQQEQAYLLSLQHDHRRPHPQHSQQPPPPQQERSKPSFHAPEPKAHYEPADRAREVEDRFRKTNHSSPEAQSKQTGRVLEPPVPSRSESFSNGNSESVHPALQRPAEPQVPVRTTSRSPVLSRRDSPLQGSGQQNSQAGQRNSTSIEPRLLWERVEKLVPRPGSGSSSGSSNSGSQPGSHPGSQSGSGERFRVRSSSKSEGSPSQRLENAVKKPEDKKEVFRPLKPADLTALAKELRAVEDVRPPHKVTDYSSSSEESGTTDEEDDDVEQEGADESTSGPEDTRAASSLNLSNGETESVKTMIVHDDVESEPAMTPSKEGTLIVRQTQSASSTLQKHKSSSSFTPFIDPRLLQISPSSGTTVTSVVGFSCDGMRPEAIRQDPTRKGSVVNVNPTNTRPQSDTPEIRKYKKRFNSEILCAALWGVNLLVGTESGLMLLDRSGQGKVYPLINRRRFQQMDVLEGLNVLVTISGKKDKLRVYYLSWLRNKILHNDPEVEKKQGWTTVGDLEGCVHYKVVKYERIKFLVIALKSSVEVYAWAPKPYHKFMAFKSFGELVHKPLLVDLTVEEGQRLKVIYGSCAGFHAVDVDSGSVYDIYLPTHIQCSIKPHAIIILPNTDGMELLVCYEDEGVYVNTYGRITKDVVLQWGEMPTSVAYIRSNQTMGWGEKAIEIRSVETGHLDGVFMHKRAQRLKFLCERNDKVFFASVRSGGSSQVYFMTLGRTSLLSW
Chain of PDK1 (Q15118 whole entry, the tested form may be a part): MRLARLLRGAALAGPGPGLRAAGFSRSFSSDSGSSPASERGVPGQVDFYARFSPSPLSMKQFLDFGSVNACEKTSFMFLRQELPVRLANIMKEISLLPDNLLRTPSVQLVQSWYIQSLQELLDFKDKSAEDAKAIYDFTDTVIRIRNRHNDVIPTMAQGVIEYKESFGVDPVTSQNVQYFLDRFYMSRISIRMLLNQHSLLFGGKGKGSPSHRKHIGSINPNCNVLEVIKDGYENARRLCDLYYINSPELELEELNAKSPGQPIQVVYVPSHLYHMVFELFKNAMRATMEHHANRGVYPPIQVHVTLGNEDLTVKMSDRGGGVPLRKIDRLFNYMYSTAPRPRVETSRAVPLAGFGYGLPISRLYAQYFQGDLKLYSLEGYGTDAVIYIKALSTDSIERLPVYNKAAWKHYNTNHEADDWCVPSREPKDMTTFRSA
Chain of PAK4 (O96013 whole entry, the tested form may be a part): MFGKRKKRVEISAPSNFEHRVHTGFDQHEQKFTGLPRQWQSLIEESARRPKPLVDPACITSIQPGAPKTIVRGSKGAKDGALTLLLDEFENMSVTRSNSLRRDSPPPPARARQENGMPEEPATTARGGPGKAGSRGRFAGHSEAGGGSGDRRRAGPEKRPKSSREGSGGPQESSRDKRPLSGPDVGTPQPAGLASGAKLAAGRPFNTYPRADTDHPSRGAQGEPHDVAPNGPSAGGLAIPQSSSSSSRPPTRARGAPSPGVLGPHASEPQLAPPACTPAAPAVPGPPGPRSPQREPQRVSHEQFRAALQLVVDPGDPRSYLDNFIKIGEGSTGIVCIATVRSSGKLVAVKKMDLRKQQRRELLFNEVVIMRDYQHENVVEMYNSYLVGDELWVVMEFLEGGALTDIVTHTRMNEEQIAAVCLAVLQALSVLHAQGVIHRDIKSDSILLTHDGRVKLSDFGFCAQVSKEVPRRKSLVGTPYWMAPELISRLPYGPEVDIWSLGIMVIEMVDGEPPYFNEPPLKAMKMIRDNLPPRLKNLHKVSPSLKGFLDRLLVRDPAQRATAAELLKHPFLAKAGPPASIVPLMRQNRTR
Chain of EGFR (P00533 whole entry, the tested form may be a part): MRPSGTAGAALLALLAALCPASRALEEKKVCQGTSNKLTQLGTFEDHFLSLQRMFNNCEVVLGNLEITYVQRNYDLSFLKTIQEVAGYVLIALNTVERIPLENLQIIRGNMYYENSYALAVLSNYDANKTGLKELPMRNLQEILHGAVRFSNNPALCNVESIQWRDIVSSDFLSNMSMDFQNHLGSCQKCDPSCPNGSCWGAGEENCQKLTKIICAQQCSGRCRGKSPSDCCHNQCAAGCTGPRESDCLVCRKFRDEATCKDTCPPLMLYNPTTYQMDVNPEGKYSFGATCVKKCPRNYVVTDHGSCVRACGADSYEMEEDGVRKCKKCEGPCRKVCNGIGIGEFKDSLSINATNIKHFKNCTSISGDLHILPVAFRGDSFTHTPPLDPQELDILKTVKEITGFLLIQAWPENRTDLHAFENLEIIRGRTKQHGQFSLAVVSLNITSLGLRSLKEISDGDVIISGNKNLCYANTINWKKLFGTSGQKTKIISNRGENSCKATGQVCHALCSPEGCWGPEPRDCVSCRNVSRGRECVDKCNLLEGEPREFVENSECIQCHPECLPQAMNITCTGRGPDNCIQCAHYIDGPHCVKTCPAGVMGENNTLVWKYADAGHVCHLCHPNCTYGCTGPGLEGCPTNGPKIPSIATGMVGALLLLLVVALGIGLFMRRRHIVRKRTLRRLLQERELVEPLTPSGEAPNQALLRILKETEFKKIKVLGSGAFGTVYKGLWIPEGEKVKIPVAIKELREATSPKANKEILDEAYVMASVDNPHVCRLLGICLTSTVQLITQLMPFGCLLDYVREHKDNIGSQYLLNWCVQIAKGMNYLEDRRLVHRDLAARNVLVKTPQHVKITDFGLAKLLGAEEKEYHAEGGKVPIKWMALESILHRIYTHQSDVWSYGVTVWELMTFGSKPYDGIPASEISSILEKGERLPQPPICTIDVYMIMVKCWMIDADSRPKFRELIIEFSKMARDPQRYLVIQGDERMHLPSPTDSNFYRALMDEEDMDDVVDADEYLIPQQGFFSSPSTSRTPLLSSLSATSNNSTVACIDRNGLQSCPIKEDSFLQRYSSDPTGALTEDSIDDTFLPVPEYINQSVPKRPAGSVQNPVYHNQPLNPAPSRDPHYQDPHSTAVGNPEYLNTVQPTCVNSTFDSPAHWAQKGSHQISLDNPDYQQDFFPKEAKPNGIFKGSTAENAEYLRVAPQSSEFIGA

What is called inhibition is the relative decrease from the control value, in per cent. Broadly, the MIC is the smallest concentration in the dilution series that meets the test's criterion for growth inhibition. As to `CC(C)COc1cccc(Cl)c1-c1cc2cnc(N)nc2nc1N1C[C@@H]2[C@@H](N)[C@@H]2C1`, the inhibition at 1 h, 25 µM in series [1] was 0%; in [2], 23%; in [3] it was 67%; in series [4], -8%; in series [5], 60%; in series [6] it was 21%. For the same molecule, the inhibition at 1 h, 25 µM in series [7] was found to be 3%; in series [8], 40%; in series [9], 30%; in series [10], 24%; in series [11], 42%; in series [12], 7%. Further, the inhibition at 1 h, 25 µM in [14] came out at 6%; in [15], 3%. In addition, in [13], the minimal inhibitory concentration (MIC) amounted to 0.015 µg/mL.

Consider `Nc1ncc2cc(-c3c(Br)cccc3Br)c(N)nc2n1`, for which the inhibition at 1 h, 25 µM came out at 3% in series [1]; 20% in series [2]; 13% in series [3]; 0% in series [4]; 78% in [5]; 10% in [6]. Moreover, the inhibition at 1 h, 25 µM was 6% in series [7]; 47% in series [8]; 97% in series [9]; 52% in [10]; -1% in [11]; 4% in [12]. The inhibition at 1 h, 25 µM came to 58% in series [14] and 16% in series [15]. For the same molecule, in series [13], the minimal inhibitory concentration (MIC) came to 0.12 µg/mL.

With `Nc1ncc2cc(-c3c(Cl)cccc3-c3cccnc3)c(N3C[C@@H]4[C@@H](N)[C@@H]4C3)nc2n1`, the inhibition at 1 h, 25 µM came to 0% in series [1]; 25% in series [2]; 20% in series [3]; 5% in series [4]; 57% in [5]; 26% in series [6]. Moreover, the inhibition at 1 h, 25 µM in series [7] was 3%; in series [8], 47%; in series [9], 38%; in [10] it was 21%; in series [11] it was 28%; in series [12], 6%. In addition, the inhibition at 1 h, 25 µM in series [14] amounted to 65%; in [15] it was 3%. In addition, in series [13], the MIC is 0.008 µg/mL.
